Results published in publication PMC11074326, “A Toxoplasma gondii O-glycosyltransferase that modulates bradyzoite cyst wall rigidity is distinct from host homologues” (Nature Communications, 2024).

Molecular target: T1, TxgGalNAc-T3 (Toxoplasma gondii, UniProt A0A125YMZ8)
T1 construct: gene TGME49_318730; luminal region (catalytic and lectin domains), aa 74-635; secreted from Pichia pastoris SMD1168; His tag removed with TEV protease
Test: X-ray crystal structure
Assay type: binding
Conditions: crystals with Mn2+, UDP-GalNAc-F and glycopeptide (CST1.4 or Muc5AC series), pH 9.5; active site, UDP coordinates Mn2+A; added as UDP-GalNAc-F, only UDP modelled

T1 sequence (A0A125YMZ8 entry or part of it): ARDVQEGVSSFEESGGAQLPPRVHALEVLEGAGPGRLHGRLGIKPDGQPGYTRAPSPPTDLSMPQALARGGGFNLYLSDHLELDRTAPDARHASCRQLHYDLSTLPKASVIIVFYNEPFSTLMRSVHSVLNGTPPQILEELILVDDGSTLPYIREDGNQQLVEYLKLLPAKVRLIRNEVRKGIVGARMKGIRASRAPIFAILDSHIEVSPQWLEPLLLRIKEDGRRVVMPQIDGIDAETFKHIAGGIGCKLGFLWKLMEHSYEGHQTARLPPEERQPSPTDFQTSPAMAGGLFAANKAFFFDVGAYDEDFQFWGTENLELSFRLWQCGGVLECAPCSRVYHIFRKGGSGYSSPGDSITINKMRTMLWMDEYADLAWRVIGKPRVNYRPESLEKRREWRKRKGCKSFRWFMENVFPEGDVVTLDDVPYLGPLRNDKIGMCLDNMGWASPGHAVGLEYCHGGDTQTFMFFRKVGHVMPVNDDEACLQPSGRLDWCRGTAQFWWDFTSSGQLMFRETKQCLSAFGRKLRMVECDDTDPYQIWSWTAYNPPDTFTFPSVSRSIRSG

## O=c1ccn([C@@H]2O[C@H](COP(=O)(O)OP(=O)(O)O)[C@@H](O)[C@H]2O)c(=O)[nH]1 [UDP]
  X-ray crystal structure: We modeled UDP into the active site but did not include GalNAc-F
